ChEMBL document CHEMBL4028888, “Design of MC1R Selective γ-MSH Analogues with Canonical Amino Acids Leads to Potency and Pigmentation” (J Med Chem, 2017)
Calls of active or inactive are those of the source. The rule behind the calls is not given here. Where a SMILES comes first, the peptide text is derived from it.

Experiments:
Melanocortin receptor 5 [1] = target: T1, Melanocortin receptor 5 (Homo sapiens, UniProt P33032); assay: Agonist activity at human MC5R expressed in HEK293 cells assessed as induction of intracellular cAMP accumulation at 10 uM after 3 mins relative to MT-2; type: cell-based; details: 0.05 h, read-out: %max
T1 sequence (P33032 whole entry): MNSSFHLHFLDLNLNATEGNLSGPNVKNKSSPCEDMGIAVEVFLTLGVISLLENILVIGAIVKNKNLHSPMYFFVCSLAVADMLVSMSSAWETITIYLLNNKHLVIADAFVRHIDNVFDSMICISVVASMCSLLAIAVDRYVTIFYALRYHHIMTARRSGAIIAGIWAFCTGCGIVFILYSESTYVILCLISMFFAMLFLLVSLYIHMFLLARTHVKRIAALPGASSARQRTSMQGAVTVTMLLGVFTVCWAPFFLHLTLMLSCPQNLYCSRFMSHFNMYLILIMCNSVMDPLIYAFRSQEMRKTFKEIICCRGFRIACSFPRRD

Melanocortin receptor 4 [2] = target: T2, Melanocortin receptor 4 (Homo sapiens, UniProt P32245); assay: Displacement of [125I]-NDP-alpha-MSH from human MC4R expressed in HEK293 cells at 10 uM after 40 mins by gamma counting method; type: cell-based
T2 sequence (P32245 whole entry): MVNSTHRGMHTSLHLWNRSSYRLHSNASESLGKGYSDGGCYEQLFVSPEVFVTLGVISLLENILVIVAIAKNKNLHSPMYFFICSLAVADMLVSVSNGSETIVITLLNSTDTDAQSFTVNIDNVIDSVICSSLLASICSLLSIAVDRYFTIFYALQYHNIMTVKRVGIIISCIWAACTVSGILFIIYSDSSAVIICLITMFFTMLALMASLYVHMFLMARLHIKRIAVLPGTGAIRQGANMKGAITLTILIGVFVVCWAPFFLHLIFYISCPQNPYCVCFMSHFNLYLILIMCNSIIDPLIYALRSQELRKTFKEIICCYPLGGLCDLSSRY

Melanocortin receptor 4 [3] = target: T2, Melanocortin receptor 4; assay: Agonist activity at human MC4R expressed in HEK293 cells assessed as induction of intracellular cAMP accumulation at 10 uM after 3 mins relative to MT-2; type: cell-based; details: 0.05 h, read-out: %max
[4] = target: Melanocyte-stimulating hormone receptor (Homo sapiens) (UniProt Q01726); assay: Displacement of [125I]-NDP-alpha-MSH from human MC1R expressed in HEK293 cells at 10 uM after 40 mins by gamma counting method; type: cell-based
Melanocyte-stimulating hormone receptor (Homo sapiens), sequence (Q01726 whole entry, looked up): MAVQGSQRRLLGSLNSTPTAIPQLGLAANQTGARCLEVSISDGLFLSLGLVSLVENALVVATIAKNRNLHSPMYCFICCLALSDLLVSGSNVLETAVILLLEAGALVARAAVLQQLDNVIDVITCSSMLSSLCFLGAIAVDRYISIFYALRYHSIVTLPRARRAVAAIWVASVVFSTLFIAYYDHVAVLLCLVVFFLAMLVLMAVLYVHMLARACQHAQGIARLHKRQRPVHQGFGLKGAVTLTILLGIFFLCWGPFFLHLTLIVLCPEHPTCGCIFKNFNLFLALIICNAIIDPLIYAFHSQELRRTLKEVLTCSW

[5] = target: Melanocyte-stimulating hormone receptor (Homo sapiens) (UniProt Q01726); assay: Agonist activity at human MC1R expressed in HEK293 cells assessed as induction of intracellular cAMP accumulation at 10 uM measured after 3 mins relative to MT-2; type: functional, cell-based
Anolis carolinensis [6] = assay: Induction of pigmentation effect in lizard at 2 ug/g, ip at 24 hrs post dose; type: functional, organism-based
Melanocortin receptor 5 [7] = target: T1, Melanocortin receptor 5; assay: Displacement of [125I]-NDP-alpha-MSH from human MC5R expressed in HEK293 cells at 10 uM after 40 mins by gamma counting method; type: cell-based
Anolis carolinensis [8] = assay: Induction of pigmentation effect in lizard at 2 ug/g, ip at 1 min post dose; type: functional, organism-based
Melanocortin receptor 3 [9] = target: T3, Melanocortin receptor 3 (Homo sapiens, UniProt P41968); assay: Agonist activity at human MC3R expressed in HEK293 cells assessed as induction of intracellular cAMP accumulation at 10 uM after 3 mins relative to MT-2; type: cell-based; details: 0.05 h, read-out: %max
T3 sequence (P41968 whole entry): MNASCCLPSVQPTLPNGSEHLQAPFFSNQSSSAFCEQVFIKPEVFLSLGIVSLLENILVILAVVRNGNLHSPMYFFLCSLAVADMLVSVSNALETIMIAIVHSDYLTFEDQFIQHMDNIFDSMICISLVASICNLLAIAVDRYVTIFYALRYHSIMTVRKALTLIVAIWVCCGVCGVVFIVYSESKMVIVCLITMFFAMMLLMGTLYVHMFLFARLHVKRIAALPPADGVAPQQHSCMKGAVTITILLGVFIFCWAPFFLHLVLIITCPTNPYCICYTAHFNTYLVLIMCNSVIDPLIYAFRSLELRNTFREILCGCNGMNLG

[10] = target: Melanocyte-stimulating hormone receptor (Homo sapiens) (UniProt Q01726); assay: Displacement of [125I]-NDP-alpha-MSH from human MC1R expressed in HEK293 cells after 40 mins by gamma counting method; type: cell-based
Melanocortin receptor 3 [11] = target: T3, Melanocortin receptor 3; assay: Displacement of [125I]-NDP-alpha-MSH from human MC3R expressed in HEK293 cells at 10 uM after 40 mins by gamma counting method; type: cell-based
Melanocortin receptor 5 [12] = target: T1, Melanocortin receptor 5; assay: Agonist activity at human MC5R expressed in HEK293 cells assessed as induction of intracellular cAMP accumulation after 3 mins; type: cell-based; details: hek293, 0.05 h

Structure (SMILES)	Emax at 10 µM (Melanocortin receptor 5 [1])	inhibition at 10 µM (Melanocortin receptor 4 [2])	inhibition [4]	inhibition at 10 µM (Melanocortin receptor 5 [7])	also measured
CC(C)C[C@H](NC(=O)[C@@H](NC(=O)[C@@H](N)Cc1ccc(O)cc1)C(C)C)C(=O)NCC(=O)N[C@@H](Cc1cnc[nH]1)C(=O)N[C@@H](Cc1ccccc1)C(=O)N[C@@H](CCCNC(=N)N)C(=O)N[C@@H](Cc1c[nH]c2ccccc12)C(=O)N[C@@H](CC(=O)O)C(=O)N[C@@H](CCCNC(=N)N)C(=O)N[C@@H](Cc1ccccc1)C(=O)NCC(N)=O	0%	100%	–	–	–
CSCC[C@H](NC(=O)[C@@H](NC(=O)[C@@H](N)Cc1ccc(O)cc1)C(C)C)C(=O)NCC(=O)N[C@@H](Cc1cnc[nH]1)C(=O)N[C@@H](Cc1ccccc1)C(=O)N[C@@H](CCCNC(=N)N)C(=O)N[C@@H](Cc1c[nH]c2ccccc12)C(=O)N[C@@H](CC(=O)O)C(=O)N[C@@H](CCCNC(=N)N)C(=O)N[C@@H](Cc1ccccc1)C(=O)NCC(N)=O	–	100%	–	–	Emax at 10 µM (Melanocortin receptor 4 [3]): 76%
CCCC[C@H](NC(=O)[C@@H](NC(=O)[C@H](Cc1ccc(O)cc1)NC(C)=O)C(C)C)C(=O)NCC(=O)N[C@@H](Cc1cnc[nH]1)C(=O)N[C@H](Cc1ccccc1)C(=O)N[C@@H](CCCNC(=N)N)C(=O)N[C@@H](Cc1c[nH]c2ccccc12)C(=O)N[C@@H](CC(=O)O)C(=O)N[C@@H](CCCNC(=N)N)C(=O)N[C@@H](Cc1ccccc1)C(=O)NCC(N)=O	–	100%	–	–	–
CSCC[C@H](NC(=O)[C@H](CO)NC(=O)[C@H](Cc1ccc(O)cc1)NC(=O)[C@H](CO)NC(C)=O)C(=O)N[C@@H](CCC(=O)O)CN[C@@H](Cc1cnc[nH]1)C(=O)N[C@@H](Cc1ccccc1)C(=O)N[C@@H](CCCNC(=N)N)C(=O)N[C@@H](Cc1c[nH]c2ccccc12)C(=O)NCC(=O)N[C@@H](CCCCN)C(=O)N1CCC[C@H]1C(=O)N[C@H](C(N)=O)C(C)C	–	–	100%	–	%max [5]: 100%
CC(C)C[C@H](NC(=O)[C@H](Cc1ccccc1)NC(=O)[C@H](Cc1cnc[nH]1)NC(=O)CNC(=O)[C@H](CC(C)C)NC(=O)[C@@H](NC(=O)[C@@H](N)Cc1ccc(O)cc1)C(C)C)C(=O)N[C@@H](Cc1ccccc1)C(=O)N[C@@H](CC(=O)O)C(=O)N[C@@H](CCCNC(=N)N)C(=O)N[C@@H](Cc1ccccc1)C(=O)NCC(N)=O (H-YVLGHFLFDRFG-NH2)	–	–	100%	0%	Activity (Anolis carolinensis [6]): inactive; Activity (Anolis carolinensis [8]): Active
CC(C)C[C@H](NC(=O)[C@H](Cc1ccccc1)NC(=O)[C@H](Cc1cnc[nH]1)NC(=O)CNC(=O)[C@H](CC(C)C)NC(=O)[C@@H](NC(=O)[C@@H](N)Cc1ccc(O)cc1)C(C)C)C(=O)N[C@@H](Cc1c[nH]c2ccccc12)C(=O)N[C@@H](CC(=O)O)C(=O)N[C@@H](CCCNC(=N)N)C(=O)N[C@@H](Cc1ccccc1)C(=O)NCC(N)=O (H-YVLGHFLWDRFG-NH2)	–	–	100%	0%	Emax at 10 µM (Melanocortin receptor 3 [9]): 0%
CC(C)C[C@H](NC(=O)[C@H](Cc1ccccc1)NC(=O)[C@@H]1CCCN1C(=O)CNC(=O)[C@H](CC(C)C)NC(=O)[C@@H](NC(=O)[C@@H](N)Cc1ccc(O)cc1)C(C)C)C(=O)N[C@@H](Cc1ccccc1)C(=O)N[C@@H](CC(=O)O)C(=O)N[C@@H](CCCNC(=N)N)C(=O)N[C@@H](Cc1ccccc1)C(=O)NCC(N)=O (H-YVLGPFLFDRFG-NH2)	0%	–	–	–	–
CC(C)C[C@H](NC(=O)[C@H](Cc1ccccc1)NC(=O)[C@@H]1CCCN1C(=O)CNC(=O)[C@H](CC(C)C)NC(=O)[C@@H](NC(=O)[C@@H](N)Cc1ccc(O)cc1)C(C)C)C(=O)N[C@@H](Cc1c[nH]c2ccccc12)C(=O)N[C@@H](CC(=O)O)C(=O)N[C@@H](CCCNC(=N)N)C(=O)N[C@@H](Cc1ccccc1)C(=O)NCC(N)=O (H-YVLGPFLWDRFG-NH2)	0%	–	–	32%	Emax at 10 µM (Melanocortin receptor 4 [3]): 0%
CC(C)C[C@H](NC(=O)[C@@H](NC(=O)[C@@H](N)Cc1ccc(O)cc1)C(C)C)C(=O)NCC(=O)N1CCC[C@H]1C(=O)N[C@@H](Cc1ccccc1)C(=O)N[C@@H](CCCNC(=N)N)C(=O)N[C@@H](Cc1ccccc1)C(=O)N[C@@H](CC(=O)O)C(=O)N[C@@H](CCCNC(=N)N)C(=O)N[C@@H](Cc1ccccc1)C(=O)NCC(N)=O (H-YVLGPFRFDRFG-NH2)	0%	0%	–	–	inhibition [10]: 0%; Emax at 10 µM (Melanocortin receptor 3 [9]): 0%
CC(C)C[C@H](NC(=O)[C@@H](NC(=O)[C@@H](N)Cc1ccc(O)cc1)C(C)C)C(=O)NCC(=O)N1CCC[C@H]1C(=O)N[C@@H](Cc1ccccc1)C(=O)N[C@@H](CCCNC(=N)N)C(=O)N[C@@H](Cc1c[nH]c2ccccc12)C(=O)N[C@@H](CC(=O)O)C(=O)N[C@@H](CCCNC(=N)N)C(=O)N[C@@H](Cc1ccccc1)C(=O)NCC(N)=O (H-YVLGPFRWDRFG-NH2)	–	–	–	–	inhibition at 10 µM (Melanocortin receptor 3 [11]): 100%
CCCC[C@H](NC(=O)[C@@H](NC(=O)[C@@H](N)Cc1ccc(O)cc1)C(C)C)C(=O)NCC(=O)N[C@@H](Cc1c[nH]cn1)C(=O)N[C@H](Cc1ccc2ccccc2c1)C(=O)N[C@@H](CCCN=C(N)N)C(=O)NC(Cc1c[nH]c2ccccc12)C(=O)N[C@@H](CC(=O)O)C(=O)N[C@@H](CCCN=C(N)N)C(=O)N[C@@H](Cc1ccccc1)C(=O)NCC(N)=O (stereo in doubt)	6%	100%	100%	100%	Activity (Melanocortin receptor 5 [12]): 0%; %max [5]: 70%; Emax at 10 µM (Melanocortin receptor 3 [9]): 6%; inhibition at 10 µM (Melanocortin receptor 3 [11]): 100%
